Measured values as given in patent publication US8907092B2, “Inhibitors of IAP” (Genentech, Inc., priority 2007, dated 2014).
*1 amine or outer side, *2 acyl side, *3 side chain or, on linkers, in order; H or OH if unused. Where a SMILES comes first, the peptide text is derived from it. Bridges are numbered along the chain shown (N, C = ends). Roman numbers before positions name the chains, in order. [ ]: non-standard residue; d: D form. NH(CH2)3(OCH2CH2)2O(CH2)3NH = C(CN[*:1])COCCOCCOCCCN[*:2]; Dip = N[C@H](C(=O)O)C(c1ccccc1)c1ccccc1; Chg = N[C@H](C(=O)O)C1CCCCC1; NMeA = CN[C@@H](C)C(=O)O; dNMeA = CN[C@H](C)C(=O)O

The compounds below were run against T1, MLXBIR3SG (Homo sapiens, UniProt Q96CA5, S150G) (assay: Fluorescence Polarization Peptide Binding Assay). Settings: competition with 5 nM AVP-diPhe-FAM probe, MLXBIR3SG at 30 nM.
T1 sequence (Q96CA5 with tags, fused parts or gaps S150G): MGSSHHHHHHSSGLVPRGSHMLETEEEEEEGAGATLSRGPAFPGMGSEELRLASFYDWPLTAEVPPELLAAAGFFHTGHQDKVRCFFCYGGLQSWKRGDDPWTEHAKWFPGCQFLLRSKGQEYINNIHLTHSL
Procedure: In the following experiments was used a chimeric BIR domain referred to as MLXBIR3SG in which 11 of 110 residues correspond to those found in XIAP-BIR3, while the remainder correspond to ML-IAP-BIR. […] The improved caspase-9 inhibition of the chimeric BIR domain MLXBIR3SG has been correlated with increased inhibition of doxorubicin-induced apoptosis when transfected into MCF7 cells.
Polarization experiments were performed on an Analyst HT 96-384 (Molecular Devices Corp.) according to the procedure of Keating, S. M., Marsters, J, Beresini, M., Ladner, C., Zioncheck, K., Clark, K., Arellano, F., and Bodary., S. (2000) in Proceedings of SPIE: In Vitro Diagnostic Instrumentation (Cohn, G. E., Ed.) pp 128-137, Bellingham, Wash. Samples for fluorescence polarization affinity measurements were prepared by addition of 1:2 serial dilutions starting at a final concentration of 5 μM of MLXBIR3SG in polarization buffer (50 mM Tris [pH 7.2], 120 mM NaCl, 1% bovine globulins 5 mM DTT and 0.05% octylglucoside) to 5-carboxyflourescein-conjugated AVPdi-Phe-NH2 (AVP-diPhe-FAM) at 5 nM final concentration.
The reactions were read after an incubation time of 10 minutes at room temperature with standard cut-off filters for the fluorescein fluorophore (λex=485 nm; λem=530 nm) in 96-well black HE96 plates (Molecular Devices Corp.). Fluorescence values were plotted as a function of the protein concentration, and the IC50s were obtained by fitting the data to a 4-parameter equation using Kaleidograph software (Synergy software, Reading, Pa.). Competition experiments were performed by addition of the MLXBIR3SG at 30 nM to wells containing 5 nM of the AVP-diPhe-FAM probe as well as 1:3 serial dilutions of antagonist compounds starting at a concentration of 300 μM in the polarization buffer. Samples were read after a 10-minute incubation. Fluorescence polarization values were plotted as a function of the antagonist concentration, and the IC50 values were obtained by fitting the data to a 4-parameter equation using Kaleidograph software (Synergy software, Reading, Pa.) Inhibition constants (Ki) for the antagonists were determined from the IC50 values.

| SMILES | IC50 |
| --- | --- |
| CN[C@@H](C)C(=O)N[C@H](C(=O)N1CC(OCc2ccc(C#CC#Cc3ccc(CO[C@H]4C[C@@H](C(=O)Nc5snnc5-c5ccccc5)N(C(=O)[C@@H](NC(=O)[C@H](C)NC)C5CCCCC5)C4)cc3)cc2)C[C@H]1C(=O)Nc1snnc1-c1ccccc1)C1CCCCC1 (stereo partly drawn) [compound 4] | 2410 nM |
| CN[C@@H](C)C(=O)N[C@H](C(=O)N1CCC[C@H]1C(=O)N[C@H](C(=O)NCCCOCCOCCOCCCNC(=O)[C@@H](NC(=O)[C@@H]1CCCN1C(=O)[C@@H](NC(=O)[C@@H](C)NC)C1CCCCC1)C(c1ccccc1)c1ccccc1)C(c1ccccc1)c1ccccc1)C1CCCCC1 [compound 10] (I: H-[NMeA][Chg]P[Dip] / II: H-[dNMeA][Chg]P[Dip]; linker I:C-II:C via NH(CH2)3(OCH2CH2)2O(CH2)3NH) | 1320 nM |
| CN[C@@H](C)C(=O)N[C@H](C(=O)N1CCC[C@H]1C(=O)Nc1sc(-c2nccs2)nc1-c1ccccc1)c1ccc(OCC#CC#CCOc2ccc([C@H](NC(=O)[C@H](C)N)C(=O)N3CCC[C@H]3C(=O)Nc3sc(-c4nccs4)nc3-c3ccccc3)cc2)cc1 [compound 11] | 1030 nM |
| CN[C@@H](C)C(=O)N[C@H](C(=O)N1CCC[C@H]1C(=O)Nc1sc(-c2nccn2C)nc1-c1ccccc1)c1ccc(OCC#CC#CCOc2ccc([C@H](NC(=O)[C@H](C)NC)C(=O)N3CCC[C@H]3C(=O)Nc3sc(-c4nccn4C)nc3-c3ccccc3)cc2)cc1 [compound 12] | 1100 nM |
| CN[C@@H](C)C(=O)N[C@H](C(=O)N1CCC[C@H]1C(=O)Nc1sc(-c2ccccn2)nc1-c1ccccc1)c1ccc(OCC#CC#CCOc2ccc([C@H](NC(=O)[C@H](C)NC)C(=O)N3CCC[C@H]3C(=O)Nc3sc(-c4nccn4C)nc3-c3ccccc3)cc2)cc1 [compound 13] | 3820 nM |
| CN[C@@H](C)C(=O)N[C@H](C(=O)N1CCC[C@H]1C(=O)Nc1sc(-c2ccccn2)nc1-c1ccccc1)c1ccc(OCC#CC#CCOc2ccc([C@H](NC(=O)[C@H](C)NC)C(=O)N3CCC[C@H]3C(=O)Nc3sc(-c4ccccn4)nc3-c3ccccc3)cc2)cc1 [compound 14] | 2350 nM |
| CN[C@@H](C)C(=O)N[C@H](C(=O)N1CCC[C@H]1C(=O)Nc1sc(C(=O)NCCCCCCCCCCCNC(=O)c2nc(-c3ccccc3)c(NC(=O)[C@@H]3CCCN3C(=O)[C@@H](NC(=O)[C@H](C)NC)C3CCCCC3)s2)nc1-c1ccccc1)C1CCCCC1 [compound 15] | 3830 nM |
| CN[C@@H](C)C(=O)N[C@H](C(=O)N1CCC[C@H]1C(=O)Nc1sc(C(=O)NCCOCCOCCNC(=O)c2nc(-c3ccccc3)c(NC(=O)[C@@H]3CCCN3C(=O)[C@@H](NC(=O)[C@H](C)NC)C3CCCCC3)s2)nc1-c1ccccc1)C1CCCCC1 [compound 16] | 234 nM |
| CN[C@@H](C)C(=O)N[C@H](C(=O)C1CCCN1c1nc2c(-c3ccccc3)nccc2s1)C1CCN(C(=O)NCCCCCCNC(=O)N2CCC([C@H](NC(=O)[C@H](C)NC)C(=O)N3CCC[C@H]3c3nc4c(-c5ccccc5)nccc4s3)CC2)CC1 (stereo partly drawn) [compound 17] | 168 nM |
| CN[C@@H](C)C(=O)N[C@H](C(=O)N1CCC[C@H]1C(=O)Nc1sc(C(=O)NCC(O)CNC(=O)c2nc(-c3ccccc3)c(NC(=O)[C@@H]3CCCN3C(=O)[C@@H](NC(=O)[C@H](C)NC)C3CCCCC3)s2)nc1-c1ccccc1)C1CCCCC1 [compound 22] | 378 nM |
| CN[C@@H](C)C(=O)N[C@H](C(=O)N1CCC[C@H]1C(=O)Nc1sc(C(=O)NCC(C)(C)CNC(=O)c2nc(-c3ccccc3)c(NC(=O)[C@@H]3CCCN3C(=O)[C@@H](NC(=O)[C@H](C)NC)C3CCCCC3)s2)nc1-c1ccccc1)C1CCCCC1 [compound 23] | 679 nM |
| CN[C@@H](C)C(=O)N[C@H](C(=O)N1CCC[C@H]1C(=O)Nc1sc(C(=O)NCc2ccc(CNC(=O)c3nc(-c4ccccc4)c(NC(=O)C4CCCN4C(=O)[C@H](NC(=O)[C@@H](C)NC)C4CCCCC4)s3)cc2)nc1-c1ccccc1)C1CCCCC1 (stereo partly drawn) [compound 24] | 1380 nM |
